# Reference: patent US20050215649A1, “Conjugated alphatic dialdehyde disinfecting and sterilizing compositions and methods of using the same” (priority 2004, published 2005)
# Read-outs that look alike come from different tables or passages of the source.
# Experiments:
# Mycobacterium bovis BCG = assay type: cell-based; conditions: for time within which biocidal: 0.5% 2-butenedial
# spores of B. subtilis = test: AOAC Sporicidal Test, B. subtilis spores; assay type: cell-based; conditions: pH 4, 20° C., 24 hours
# Description: (§1) In this example, a series of aqueous solutions containing from 2 to 0.5% of 2-butenedial, buffered at pH 4 with monopotassium hydrogen phosphate and acetic acid, were tested according to methods described in the AOAC Sporicidal Test to determine their effectiveness against spores of B. subtilis and C. sporogenes at 20° C. in 24 hours.
# spores of C. sporogenes = test: AOAC Sporicidal Test, C. sporogenes spores; assay type: cell-based; conditions: pH 4, 20° C., 24 hours
# Description: as §1
# [1] = Storage stability of solutions at 25° C., effect of pH; assay type: physicochemical
# Description: Solutions containing about 3% of 2-butenedial buffered to pH 3, 5 and 7 were stored at 25° C. for about 3 months to determine the effect of pH on the stability of the solutions.
# [2] = Storage stability of solutions at 0-5° C., pH 4; assay type: physicochemical; conditions: pH 4, 0-5° C.
# Description: Solutions containing about 2.7% of 2-butenedial buffered to pH 4 were stored at 0-5° C. for about 3 months to determine the effect of storage temperature on the stability of the solutions.
# [3] = Use life stability at 25° C. for 14 days, effect of pH; assay type: physicochemical
# Description: Solutions containing 2% of 2-butenedial buffered to pH 2.5, 3.5 and 4.5 were aged at 25° C. for 14 days to determine the effect of pH on use life stability.
# Solubility in water = assay type: physicochemical
# Text: 2-Butenedial is present in the composition, at use concentration, in amounts of between 0.5% and 1.0% by weight. Higher concentrations, e.g., up to 2%, or lower concentrations, e.g., above 0.25%, could be used if desired. The preferred concentration of 2-butenedial at use dilution is about 0.5% by weight. Higher concentrations of 2-butenedial may be used for shipping the composition to the point of use and the composition could then be diluted with water to the desired use concentration. The limit on the amount of 2-butenedial used in the concentrate composition is a function of the solubility of 2-butenedial in water, which is about 20% w/w. To achieve compositions with greater than 20% w/w, a water miscible co-solvent can be used. Typically, suitable co-solvents include low molecular weight alcohols and glycols. The optimum parameters for any given quantity to be sterilized or disinfected can be determined by routine experimentation using varying concentrations, treatment times, and temperatures as described herein.
# [4] = 0.5% (w/w) butenedial, penicylinders
# [5] = 1% (w/w) butenedial, penicylinders
# [6] = 2% (w/w) butenedial, penicylinders
smiles,measurement,setting,value
"O=CC=CC=O [2-butenedial, 2-Butenedial]",time within which biocidal,"Mycobacterium bovis BCG; pH 4, 20° C.",≤ 30 min
same,time within which biocidal,"Mycobacterium bovis BCG; pH 5.5, 20° C.",≤ 30 min
same,Percent Reduction of Organisms,"Mycobacterium bovis BCG; 0.5% (w/w) butenedial, pH 4, 20° C., 5 min",>99.78%
same,Percent Reduction of Organisms,"Mycobacterium bovis BCG; 0.5% (w/w) butenedial, pH 4, 20° C., 15 min",>99.996%
same,Percent Reduction of Organisms,"Mycobacterium bovis BCG; 0.5% (w/w) butenedial, pH 4, 20° C., 30 min",>100%
same,Percent Reduction of Organisms,"Mycobacterium bovis BCG; 0.5% (w/w) butenedial, pH 4, 20° C., 60 min",>100%
same,Percent Reduction of Organisms,"Mycobacterium bovis BCG; 0.5% (w/w) butenedial, pH 5.5, 20° C., 5 min",83.5%
same,Percent Reduction of Organisms,"Mycobacterium bovis BCG; 0.5% (w/w) butenedial, pH 5.5, 20° C., 15 min",>99.996%
same,Percent Reduction of Organisms,"Mycobacterium bovis BCG; 0.5% (w/w) butenedial, pH 5.5, 20° C., 30 min",>100%
same,Percent Reduction of Organisms,"Mycobacterium bovis BCG; 0.5% (w/w) butenedial, pH 5.5, 20° C., 60 min",>100%
same,Percent Reduction of Organisms,"Mycobacterium bovis BCG; 1% (w/w) butenedial, pH 4, 20° C., 5 min",>99.97%
same,Percent Reduction of Organisms,"Mycobacterium bovis BCG; 1% (w/w) butenedial, pH 4, 20° C., 15 min",>99.997%
same,Percent Reduction of Organisms,"Mycobacterium bovis BCG; 1% (w/w) butenedial, pH 4, 20° C., 30 min",>100%
same,Percent Reduction of Organisms,"Mycobacterium bovis BCG; 1% (w/w) butenedial, pH 4, 20° C., 60 min",>100%
same,Percent Reduction of Organisms,"Mycobacterium bovis BCG; 1% (w/w) butenedial, pH 5.5, 20° C., 5 min",94.5%
same,Percent Reduction of Organisms,"Mycobacterium bovis BCG; 1% (w/w) butenedial, pH 5.5, 20° C., 15 min",>99.997%
same,Percent Reduction of Organisms,"Mycobacterium bovis BCG; 1% (w/w) butenedial, pH 5.5, 20° C., 30 min",>100%
same,Percent Reduction of Organisms,"Mycobacterium bovis BCG; 1% (w/w) butenedial, pH 5.5, 20° C., 60 min",>100%
same,Percent Reduction of Organisms,"Mycobacterium bovis BCG; 2% (w/w) butenedial, pH 4, 20° C., 5 min",>99.98%
same,Percent Reduction of Organisms,"Mycobacterium bovis BCG; 2% (w/w) butenedial, pH 4, 20° C., 15 min",>99.998%
same,Percent Reduction of Organisms,"Mycobacterium bovis BCG; 2% (w/w) butenedial, pH 4, 20° C., 30 min",>100%
same,Percent Reduction of Organisms,"Mycobacterium bovis BCG; 2% (w/w) butenedial, pH 4, 20° C., 60 min",>100%
same,Percent Reduction of Organisms,"Mycobacterium bovis BCG; 2% (w/w) butenedial, pH 5.5, 20° C., 5 min",95%
same,Percent Reduction of Organisms,"Mycobacterium bovis BCG; 2% (w/w) butenedial, pH 5.5, 20° C., 15 min",99.95%
same,Percent Reduction of Organisms,"Mycobacterium bovis BCG; 2% (w/w) butenedial, pH 5.5, 20° C., 30 min",>100%
same,Percent Reduction of Organisms,"Mycobacterium bovis BCG; 2% (w/w) butenedial, pH 5.5, 20° C., 60 min",>100%
same,minimum effective concentration,Mycobacterium bovis BCG; based on results on spores and tubercular bacteria,0.5%
same,Total No. of Positives(Failures/Total No. of Tests),spores of B. subtilis; [4],0/30
same,Total No. of Positives(Failures/Total No. of Tests),"spores of B. subtilis; 0.5% (w/w) butenedial, sutures",0/30
same,Total No. of Positives(Failures/Total No. of Tests),spores of B. subtilis; [5],0/30
same,Total No. of Positives(Failures/Total No. of Tests),"spores of B. subtilis; 1% (w/w) butenedial, sutures",0/30
same,Total No. of Positives(Failures/Total No. of Tests),spores of B. subtilis; [6],0/30
same,Total No. of Positives(Failures/Total No. of Tests),"spores of B. subtilis; 2% (w/w) butenedial, sutures",0/30
same,minimum effective concentration against spores,spores of B. subtilis,about 0.5%
same,Total No. of Positives(Failures/Total No. of Tests),spores of C. sporogenes; [4],1/30
same,Total No. of Positives(Failures/Total No. of Tests),"spores of C. sporogenes; 0.5% (w/w) butenedial, sutures",0/30
same,Total No. of Positives(Failures/Total No. of Tests),spores of C. sporogenes; [5],0/30
same,Total No. of Positives(Failures/Total No. of Tests),"spores of C. sporogenes; 1% (w/w) butenedial, sutures",0/30
same,Total No. of Positives(Failures/Total No. of Tests),spores of C. sporogenes; [6],0/30
same,Total No. of Positives(Failures/Total No. of Tests),"spores of C. sporogenes; 2% (w/w) butenedial, sutures",0/30
same,minimum effective concentration against spores,spores of C. sporogenes,about 0.5%
same,Percent (%) Butenedial,"[1]; pH 3, 25° C., storage time 0 months",2.94%
same,Percent (%) Butenedial,"[1]; pH 3, 25° C., storage time 1 month",2.4%
same,Percent (%) Butenedial,"[1]; pH 3, 25° C., storage time 2 months",1.77%
same,Percent (%) Butenedial,"[1]; pH 3, 25° C., storage time 3 months",0.95%
same,Percent (%) Butenedial,"[1]; pH 5, 25° C., storage time 0 months",2.94%
same,Percent (%) Butenedial,"[1]; pH 5, 25° C., storage time 1 month",1.06%
same,Percent (%) Butenedial,"[1]; pH 5, 25° C., storage time 2 months",0.55%
same,Percent (%) Butenedial,"[1]; pH 5, 25° C., storage time 3 months",0.13%
same,Percent (%) Butenedial,"[1]; pH 7, 25° C., storage time 0 months",2.94%
same,Percent (%) Butenedial,"[1]; pH 7, 25° C., storage time 1 month",0.12%
same,Percent (%) Butenedial,"[1]; pH 7, 25° C., storage time 2 months",0.09%
same,Percent (%) Butenedial,"[1]; pH 7, 25° C., storage time 3 months",0.06%
same,acceptable storage stability,"[1]; stored as one component at pH 3, 25° C.",about 3 months
same,% Butenedial,[2]; storage time 0 mo,2.72%
same,% Butenedial,[2]; storage time 1 mo,2.67%
same,% Butenedial,[2]; storage time 2 mo,2.68%
same,% Butenedial,[2]; storage time 3 mo,2.54%
same,acceptable use life stability,"[3]; 25° C., pH 2.5, 3.5 and 4.5, minimum effective concentration 0.5%",at least 14 days
same,Percent (%) Butenedial,"[3]; pH 2.5, 25° C., use life 0 days",2.0%
same,Percent (%) Butenedial,"[3]; pH 2.5, 25° C., use life 2 days",1.94%
same,Percent (%) Butenedial,"[3]; pH 2.5, 25° C., use life 4 days",1.84%
same,Percent (%) Butenedial,"[3]; pH 2.5, 25° C., use life 7 days",1.78%
same,Percent (%) Butenedial,"[3]; pH 2.5, 25° C., use life 10 days",1.7%
same,Percent (%) Butenedial,"[3]; pH 2.5, 25° C., use life 14 days",1.6%
same,Percent (%) Butenedial,"[3]; pH 3.5, 25° C., use life 0 days",2.0%
same,Percent (%) Butenedial,"[3]; pH 3.5, 25° C., use life 2 days",1.92%
same,Percent (%) Butenedial,"[3]; pH 3.5, 25° C., use life 4 days",1.76%
same,Percent (%) Butenedial,"[3]; pH 3.5, 25° C., use life 7 days",1.6%
same,Percent (%) Butenedial,"[3]; pH 3.5, 25° C., use life 10 days",1.5%
same,Percent (%) Butenedial,"[3]; pH 3.5, 25° C., use life 14 days",1.4%
same,Percent (%) Butenedial,"[3]; pH 4.5, 25° C., use life 0 days",2.0%
same,Percent (%) Butenedial,"[3]; pH 4.5, 25° C., use life 2 days",1.73%
same,Percent (%) Butenedial,"[3]; pH 4.5, 25° C., use life 4 days",1.5%
same,Percent (%) Butenedial,"[3]; pH 4.5, 25° C., use life 7 days",1.32%
same,Percent (%) Butenedial,"[3]; pH 4.5, 25° C., use life 10 days",1.0%
same,Percent (%) Butenedial,"[3]; pH 4.5, 25° C., use life 14 days",0.8%
same,solubility in water,Solubility in water,about 20 % w/w
